Results from patent US8629173B2, “Solid forms comprising (+)-2-[1-(3-ethoxy-4-methoxyphenyl)-2-methylsulfonylethyl]-4-acetylaminoisoindoline-1,3-dione, compositions thereof, and uses thereof” (Celgene Corporation, priority 2002, dated 2014).
pIC50: −log10 of the molar value. In brackets after ≈: the same amount, converted by molar mass.

Columns and labels:
[1] = target: PDE3 from human platelets (Homo sapiens, UniProt Q14432); assay: PDE3 enzyme assay; type: biochemical
[2] = target: PDE5 from human platelets (Homo sapiens, UniProt O76074); assay: PDE5 enzyme assay; type: biochemical
[3] = system: conscious ferret; assay: Emesis and behavioral changes in conscious ferret; type: in vivo
Method: The conscious ferret model has been used to investigate anti-inflammatory, emetic and behavioral effects of PDE4 inhibitors when administered by the oral (p.o.) route. From these experiments, a therapeutic index (TI) for each PDE4 inhibitor may be determined. The TI has been calculated by dividing the threshold dose for causing emetic episodes and behavioral changes by the anti-inflammatory dose (dose that causes 50% inhibition of the LPS-induced neutrophilia).
PDE4 inhibitors were administered orally (p.o.), at doses initially of […], but subsequently up to 30 mg/kg in order to establish whether the TI was 10 or higher, and/or at lower doses to establish the minimum dose to cause 50% inhibition of neutrophilia. Ferrets were fasted overnight but allowed free access to water. The animals were orally dosed with vehicle or PDE4 inhibitor using a 15 cm dosing needle that was passed down the back of the throat into the oesophagus. After dosing, the animals were returned to holding cages fitted with Perspex doors to allow observation, and given free access to water. After dosing, the animals were constantly observed and any emesis or behavioral changes were recorded. The animals were allowed access to food 60 to 90 minutes after p.o. dosing.
Thirty minutes after p.o. dosing with compound or vehicle control, the ferrets were placed into sealed Perspex containers and exposed to an aerosol of LPS (100 μg/ml) for 10 minutes. Aerosols of LPS were generated by a nebulizer (DeVilbiss, USA) and this was directed into the Perspex exposure chamber. Following a 10 minute exposure period, the animals were returned to the holding cages and allowed free access to water, and at a later stage, food. Observation continued for a period of at least 2.5 hours post p.o. dosing and emetic episodes and behavioral changes were recorded.
2. Emetic episodes—the number of vomits and retches were counted.
3. Behavioral changes—the following behavioral effects were noted: salivation, panting, mouth clawing, flattened posture, ataxia, arched back and backward walking Any behavioral changes were semi-quantified by applying a severity rating (mild, moderate or severe).
4. The TI was calculated as the highest dose found to not cause emetic episodes divided by the lowest dose found to inhibit pulmonary neutrophilia by 50% or more.
Numbers in parentheses refer to the number of animals that responded. The numbers of animals in each group range from 4 to 22.
From these experiments, a therapeutic index (TI) was determined for each compound by dividing the threshold dose for inducing emetic episodes by the ED50 value for inhibiting the pulmonary neutrophilia.

[4] = physchem; details: pH 7.4, aqueous buffer, thermodynamic from solid
[5] = system: neutrophil adhesion to HUVEC; assay: fMLF-induced adhesion to HUVEC; type: cell-based; details: human neutrophils, 500 nM fMLF
Method: Human umbilical vein endothelial cells (HUVEC) were used as a substrate for neutrophil adhesion as previously described (Derian et al., 1995, J. Immunol., 154:308-317) with the following modifications. HUVEC cells were obtained from Anthrogenesis (Cedar Knolls, N.J., USA), and neutrophils were not treated with cytochalasin B. Cells were treated with compounds at 10, 1, 0.1, 0.01, 0.001, and 0 μM in a final DMSO concentration of 0.1% in duplicate for 10 minutes, stimulated with 500 nM fMLF for 30 minutes, and washed twice with PBS before measuring fluorescence on an FLX800 plate reader (Bio-Tek Instruments, Winooski, Vt., USA).

PDE3 from human platelets, sequence (Q14432 whole entry): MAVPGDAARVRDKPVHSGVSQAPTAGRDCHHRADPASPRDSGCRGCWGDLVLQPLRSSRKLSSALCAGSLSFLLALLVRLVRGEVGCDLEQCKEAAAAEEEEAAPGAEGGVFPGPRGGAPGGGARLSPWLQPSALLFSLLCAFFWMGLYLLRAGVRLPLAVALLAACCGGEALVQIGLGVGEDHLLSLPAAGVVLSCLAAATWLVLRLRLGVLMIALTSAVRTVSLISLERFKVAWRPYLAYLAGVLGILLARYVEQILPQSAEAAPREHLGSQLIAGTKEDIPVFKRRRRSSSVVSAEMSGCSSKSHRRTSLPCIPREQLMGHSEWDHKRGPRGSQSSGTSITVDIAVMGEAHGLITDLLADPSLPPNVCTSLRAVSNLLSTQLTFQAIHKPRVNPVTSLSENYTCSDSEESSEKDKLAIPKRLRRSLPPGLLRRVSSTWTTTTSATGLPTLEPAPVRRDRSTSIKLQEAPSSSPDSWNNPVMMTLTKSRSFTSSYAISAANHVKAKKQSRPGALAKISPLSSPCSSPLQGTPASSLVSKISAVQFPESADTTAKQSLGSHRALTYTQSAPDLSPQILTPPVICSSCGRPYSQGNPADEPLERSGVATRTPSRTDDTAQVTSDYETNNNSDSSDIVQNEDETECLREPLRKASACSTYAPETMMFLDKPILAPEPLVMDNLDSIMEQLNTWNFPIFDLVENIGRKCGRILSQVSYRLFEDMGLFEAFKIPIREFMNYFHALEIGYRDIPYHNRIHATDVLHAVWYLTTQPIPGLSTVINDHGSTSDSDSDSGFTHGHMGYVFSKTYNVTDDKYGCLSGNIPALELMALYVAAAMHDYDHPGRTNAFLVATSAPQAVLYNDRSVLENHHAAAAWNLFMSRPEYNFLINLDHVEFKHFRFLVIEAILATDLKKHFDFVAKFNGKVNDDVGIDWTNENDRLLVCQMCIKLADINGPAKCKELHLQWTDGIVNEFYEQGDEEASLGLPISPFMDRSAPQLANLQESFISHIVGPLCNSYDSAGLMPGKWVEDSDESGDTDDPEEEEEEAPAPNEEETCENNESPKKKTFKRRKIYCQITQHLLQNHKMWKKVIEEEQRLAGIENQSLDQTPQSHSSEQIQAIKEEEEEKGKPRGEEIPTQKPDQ

CCOc1cc(C(CS(C)(=O)=O)N2C(=O)c3cccc(NC(C)=O)c3C2=O)ccc1OC (single isomer, unassigned; (+)) [Compound A, (+)-2-[1-(3-ethoxy-4-methoxyphenyl)-2-methylsulfonylethyl]-4-acetylaminoisoindoline-1,3-dione]
PDE Specificity Ratio PDE4/PDE3 ([1]; from Table 1 data): >1200 fold
inhibition at 10 µM ([1]; read-out: PDE3 (% inhib at 10 μM)): 20%
PDE Specificity Ratio PDE4/PDE5 ([2]; from Table 1 data): >30000 fold
inhibition at 10 µM ([2]; read-out: PDE5 (% inhib at 10 μM)): 3%
Threshold emetic dose ([3]; conscious ferret, p.o.): 10 mg/kg
Ataxia, severity ([3]; ferret, 0.1 mg/kg p.o.): None
Backward walking, number of animals that responded ([3]; ferret, 0.1 mg/kg p.o.): (3/5)
Backward walking, severity ([3]; ferret, 0.1 mg/kg p.o.): Mild
Flattened posture, number of animals that responded ([3]; ferret, 0.1 mg/kg p.o.): (2/5)
Flattened posture, severity ([3]; ferret, 0.1 mg/kg p.o.): Mild
Lip licking, number of animals that responded ([3]; ferret, 0.1 mg/kg p.o.): (4/5)
Lip licking, severity ([3]; ferret, 0.1 mg/kg p.o.): Mild
Mouth clawing, severity ([3]; ferret, 0.1 mg/kg p.o.): None
Panting, severity ([3]; ferret, 0.1 mg/kg p.o.): None
Retches, severity ([3]; ferret, 0.1 mg/kg p.o.): None
Salivation, severity ([3]; ferret, 0.1 mg/kg p.o.): None
Vomits, severity ([3]; ferret, 0.1 mg/kg p.o.): None
Ataxia, severity ([3]; ferret, 0.3 mg/kg p.o.): None
Backward walking, number of animals that responded ([3]; ferret, 0.3 mg/kg p.o.): (4/6)
Backward walking, severity ([3]; ferret, 0.3 mg/kg p.o.): Mild
Flattened posture, number of animals that responded ([3]; ferret, 0.3 mg/kg p.o.): (2/6)
Flattened posture, severity ([3]; ferret, 0.3 mg/kg p.o.): Mild
Lip licking, number of animals that responded ([3]; ferret, 0.3 mg/kg p.o.): (3/6)
Lip licking, severity ([3]; ferret, 0.3 mg/kg p.o.): Mild
Mouth clawing, severity ([3]; ferret, 0.3 mg/kg p.o.): None
Panting, severity ([3]; ferret, 0.3 mg/kg p.o.): None
Retches, severity ([3]; ferret, 0.3 mg/kg p.o.): None
Salivation, severity ([3]; ferret, 0.3 mg/kg p.o.): None
Vomits, severity ([3]; ferret, 0.3 mg/kg p.o.): None
emetic episodes at anti-inflammatory dose ([3]; ferret, 1 mg/kg): no emetic episodes
Ataxia, severity ([3]; ferret, 1.0 mg/kg p.o.): None
Backward walking, number of animals that responded ([3]; ferret, 1.0 mg/kg p.o.): (4/6)
Backward walking, severity ([3]; ferret, 1.0 mg/kg p.o.): Mild
Flattened posture, number of animals that responded ([3]; ferret, 1.0 mg/kg p.o.): (2/6)
Flattened posture, severity ([3]; ferret, 1.0 mg/kg p.o.): Mild
Lip licking, number of animals that responded ([3]; ferret, 1.0 mg/kg p.o.): (6/6)
Lip licking, severity ([3]; ferret, 1.0 mg/kg p.o.): Mild
Mouth clawing, severity ([3]; ferret, 1.0 mg/kg p.o.): None
Panting, severity ([3]; ferret, 1.0 mg/kg p.o.): None
Retches, severity ([3]; ferret, 1.0 mg/kg p.o.): None
Salivation, severity ([3]; ferret, 1.0 mg/kg p.o.): None
Vomits, severity ([3]; ferret, 1.0 mg/kg p.o.): None
Ataxia, severity ([3]; ferret, 3.0 mg/kg p.o.): None
Backward walking, number of animals that responded ([3]; ferret, 3.0 mg/kg p.o.): (5/8)
Backward walking, severity ([3]; ferret, 3.0 mg/kg p.o.): Moderate
Flattened posture, number of animals that responded ([3]; ferret, 3.0 mg/kg p.o.): (7/8)
Flattened posture, severity ([3]; ferret, 3.0 mg/kg p.o.): Marked
Lip licking, number of animals that responded ([3]; ferret, 3.0 mg/kg p.o.): (2/8)
Lip licking, severity ([3]; ferret, 3.0 mg/kg p.o.): Mild
Mouth clawing, number of animals that responded ([3]; ferret, 3.0 mg/kg p.o.): (1/8)
Mouth clawing, severity ([3]; ferret, 3.0 mg/kg p.o.): Mild
Panting, severity ([3]; ferret, 3.0 mg/kg p.o.): None
Retches, severity ([3]; ferret, 3.0 mg/kg p.o.): None
Salivation, severity ([3]; ferret, 3.0 mg/kg p.o.): None
Vomits, severity ([3]; ferret, 3.0 mg/kg p.o.): None
Ataxia, severity ([3]; ferret, 10 mg/kg p.o.): None
Backward walking, number of animals that responded ([3]; ferret, 10 mg/kg p.o.): (6/6)
Backward walking, severity ([3]; ferret, 10 mg/kg p.o.): Marked
Flattened posture, number of animals that responded ([3]; ferret, 10 mg/kg p.o.): (6/6)
Flattened posture, severity ([3]; ferret, 10 mg/kg p.o.): Marked
Lip licking, number of animals that responded ([3]; ferret, 10 mg/kg p.o.): (5/6)
Lip licking, severity ([3]; ferret, 10 mg/kg p.o.): Moderate
Mouth clawing, number of animals that responded ([3]; ferret, 10 mg/kg p.o.): (1/6)
Mouth clawing, severity ([3]; ferret, 10 mg/kg p.o.): Mild
Panting, severity ([3]; ferret, 10 mg/kg p.o.): None
Retches, severity ([3]; ferret, 10 mg/kg p.o.): Mild
Salivation, number of animals that responded ([3]; ferret, 10 mg/kg p.o.): 1/6
Salivation, severity ([3]; ferret, 10 mg/kg p.o.): Mild
Vomits, severity ([3]; ferret, 10 mg/kg p.o.): None
emesis ([3]; ferret, 10 mg/kg p.o.): no frank emesis
salivation and behavioral changes, score ([3]; ferret, 10 mg/kg p.o.): mild or moderate
Retches, number of animals that responded ([3]; ferret, 10 mg/kg p.o., 10 mg/kg): 2/6 and (2/6)
Ataxia, number of animals that responded ([3]; ferret, 30 mg/kg p.o.): (3/4)
Ataxia, severity ([3]; ferret, 30 mg/kg p.o.): Mild
Backward walking, number of animals that responded ([3]; ferret, 30 mg/kg p.o.): (2/4)
Backward walking, severity ([3]; ferret, 30 mg/kg p.o.): Mild
Flattened posture, number of animals that responded ([3]; ferret, 30 mg/kg p.o.): (4/4)
Flattened posture, severity ([3]; ferret, 30 mg/kg p.o.): Marked
Lip licking, number of animals that responded ([3]; ferret, 30 mg/kg p.o.): (4/4)
Lip licking, severity ([3]; ferret, 30 mg/kg p.o.): Moderate
Mouth clawing, number of animals that responded ([3]; ferret, 30 mg/kg p.o.): (4/4)
Mouth clawing, severity ([3]; ferret, 30 mg/kg p.o.): Marked
Panting, number of animals that responded ([3]; ferret, 30 mg/kg p.o.): (1/4)
Panting, severity ([3]; ferret, 30 mg/kg p.o.): Mild
Retches, number of animals that responded ([3]; ferret, 30 mg/kg p.o.): (3/4)
Retches, severity ([3]; ferret, 30 mg/kg p.o.): Marked
Salivation, number of animals that responded ([3]; ferret, 30 mg/kg p.o.): (3/4)
Salivation, severity ([3]; ferret, 30 mg/kg p.o.): Moderate
Vomits, number of animals that responded ([3]; ferret, 30 mg/kg p.o.): (3/4)
Vomits, severity ([3]; ferret, 30 mg/kg p.o.): Moderate
behavioral changes ([3]; ferret, 30 mg/kg p.o.): pronounced
emesis, animals affected ([3]; ferret, 30 mg/kg p.o.): 3/4
emesis, severity ([3]; ferret, 30 mg/kg p.o.): moderate to marked
behavioral changes (flattened posture, lip licking, backward walking), classification ([3]; ferret, 0.1-3 mg/kg p.o.): mild
emetic episodes (retching and vomiting) ([3]; ferret, 0.1-3 mg/kg p.o.): no emetic episodes
Therapeutic index ([3]; threshold emetic dose divided by ED50 for pulmonary neutrophilia, ferret): 12
solubility [4]: 12 µg/mL (≈ 26.1 µM)
pIC50 [5]: 6.82
